The values below come from article PMC11532403 (Signal Transduction and Targeted Therapy, 2024).

What is called IC50 is the concentration needed to halve the response being measured. By TGI is commonly meant how far tumour growth fell short of that in controls. A higher TGI goes with much slowing of growth.

The test system of one data set is VEGFR-2. Details: method as in earlier work. Conditions: read-out: VEGFR-2 IC50 ± SD; cited from earlier work.
Data set [1] concerns RET-altered / thyroid / lung tumors. Conditions: cited from earlier work.
For a further data set, the system named is MET. Details: method as in earlier work. The note with it: read-out: MET IC50 ± SD; cited from earlier work.
For the next data set, the system named is patients. Conditions: cited from earlier work.
For another data set, the target named is hERG potassium channel (Homo sapiens, UniProt Q12809). Details: method as in literature. Conditions: in vitro GLP hERG assay, ref literature; cited from earlier work. Background: Block of hERG is tested as a sign of cardiac risk.
hERG potassium channel, sequence (Q12809 whole entry): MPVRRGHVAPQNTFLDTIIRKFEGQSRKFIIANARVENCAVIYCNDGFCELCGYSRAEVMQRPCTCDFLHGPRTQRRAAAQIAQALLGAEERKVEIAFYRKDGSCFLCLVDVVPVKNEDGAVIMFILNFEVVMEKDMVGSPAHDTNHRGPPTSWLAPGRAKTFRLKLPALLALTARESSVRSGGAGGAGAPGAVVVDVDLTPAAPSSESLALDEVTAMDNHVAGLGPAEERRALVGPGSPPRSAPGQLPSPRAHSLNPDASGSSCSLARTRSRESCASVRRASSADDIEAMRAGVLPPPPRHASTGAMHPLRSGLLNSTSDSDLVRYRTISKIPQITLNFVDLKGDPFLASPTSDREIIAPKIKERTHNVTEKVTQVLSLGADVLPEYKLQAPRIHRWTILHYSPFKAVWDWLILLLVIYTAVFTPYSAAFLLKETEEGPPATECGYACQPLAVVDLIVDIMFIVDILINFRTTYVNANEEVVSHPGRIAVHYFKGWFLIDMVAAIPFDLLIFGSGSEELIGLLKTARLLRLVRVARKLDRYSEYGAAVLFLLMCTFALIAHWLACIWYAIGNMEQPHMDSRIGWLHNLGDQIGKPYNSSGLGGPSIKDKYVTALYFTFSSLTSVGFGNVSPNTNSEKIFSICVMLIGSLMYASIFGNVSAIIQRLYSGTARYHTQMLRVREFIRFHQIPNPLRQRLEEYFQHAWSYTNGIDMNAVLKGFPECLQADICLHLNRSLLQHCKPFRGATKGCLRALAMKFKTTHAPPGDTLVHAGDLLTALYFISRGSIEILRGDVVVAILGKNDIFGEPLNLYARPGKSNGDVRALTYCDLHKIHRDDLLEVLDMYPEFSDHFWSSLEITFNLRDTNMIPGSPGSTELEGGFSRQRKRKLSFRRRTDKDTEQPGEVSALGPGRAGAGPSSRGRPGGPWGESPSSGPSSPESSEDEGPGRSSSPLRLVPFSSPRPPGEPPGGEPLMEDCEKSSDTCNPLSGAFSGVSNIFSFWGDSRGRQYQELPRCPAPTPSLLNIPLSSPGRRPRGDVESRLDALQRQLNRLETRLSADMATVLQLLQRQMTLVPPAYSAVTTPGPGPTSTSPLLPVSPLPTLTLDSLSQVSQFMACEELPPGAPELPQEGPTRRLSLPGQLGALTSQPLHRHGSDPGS
Data set [2] concerns HEK293T-KIF5B-RET^V804M xenograft. Kind of data set: Tumor xenograft model. The data set is classed as in vivo, BALB/c nude mice. Conditions: 20 mg/kg twice daily, 14 days. On the procedure:
All procedures relating to animal handling, care, and treatment were performed according to the Beijing Laboratory Animal Management Regulations. 6-week-old male BALB/c nude mice were inoculated subcutaneously into the flank with Baf3-CCDC6-RET^WT (5*10^6 cells/ 0.1 mL/ each), Baf3-CCDC6-RET^M918T (5*10^6 cells/0.1 mL/each), Baf3-CCDC6-RET^V804M (5*10^6 cells/ 0.1 mL/ each), or HEK293T-KIF5B-RET^V804M (5*10^6 cells/ 0.1 mL/ each). Mice were randomized by tumor size into groups of 10 to 12 when tumor volume reached approximately 100-150 mm^3. […] Tumor size and body weight were measured two times each week, and tumor volume was calculated with the following formula: [length × (width)^2]/ 2. Statistical significance was calculated by using two-way ANOVA test to assess the difference in tumor volumes between the control (vehicle-treated) and treatment groups.

The subject of another data set is RET. The note with it: cited from earlier work.

Read-outs that look alike come from different tables or passages of the source.

On to `COc1cc2nccc(Oc3ccc(NC(=O)C4(C(=O)Nc5ccc(F)cc5)CC4)cc3)c2cc1OC` [cabozantinib], for which the values for the IC50 with VEGFR-2 and in the data set with MET were 0.035 ± 0.01 nM and 1.3 ± 1.2 nM, respectively. For the same compound, the ORR in data set [1] (NCT00704730, MTC ref 89) was 28%. Further, the mPFS in data set [1] (NCT00704730, MTC, 140 mg/d ref 89) is listed as 11.2 months. The mOS in data set [1] (RET M918T-positive subgroup ref 89) was 44.3 months.

For `COc1cc2nccc(Oc3ccc(NC(=O)NC4CC4)c(Cl)c3)c2cc1C(N)=O` [lenvatinib], in the data set on patients (NCT01877083 ref 93), the “Patients with grade 3 or higher AEs” value is recorded as 92%. Also, in data set [1] (NCT01877083, RET fusion NSCLC, 24 mg/d ref 93), the ORR is recorded as 16%. Moreover, in data set [1] (NCT01877083 ref 93), the DCR is 76% and the mPFS was 7.3 months.

For the compound `CO[C@]1(C(=O)N[C@@H](C)c2ccc(-n3cc(F)cn3)nc2)CC[C@H](c2nc(C)cc(Nc3cc(C)[nH]n3)n2)CC1` [pralsetinib], in the data set with patients (ARROW ref 22,29), the “Grade ≥ 3 TRAEs” value was 54%, the “Grade ≥ 3 anemia” value was 12%, the “Grade ≥ 3 hypertension” value is on record as 12% and the “Grade ≥ 3 leukopenia” value is 8%. In the data set with patients (ARROW ref 22,29), the “Grade ≥ 3 lymphopenia” value is on record as 9%, the “Grade ≥ 3 neutropenia” value is given as 20% and the TRSAEs is 24%. Further, in the data set with patients, the Treatment-induced deaths is listed as 0.4%, the Treatment-induced discontinuations is 7% and the Treatment-induced dose reductions is given as 38%. For the same compound, in data set [1] (ARROW, NSCLC ref 101), the Complete response was 14% and the “Patients with tumor shrinkage” value is given as 95%. The ORR in data set [1] (ARROW, RET fusion-positive NSCLC ref 101) is 61%. Besides, in data set [1] (ARROW, RET fusion-positive NSCLC, previously treated ref 29), the ORR is 59%. Also, in data set [1] (ARROW, RET fusion-positive NSCLC, treatment-naïve ref 29), the ORR is 72%. Moreover, in data set [1] (ARROW, RET-mutant MTC previously treated with vandetanib ref 101), the ORR is reported as 60%. For the same compound, in data set [1] (ARROW, treatment-naïve MTC ref 101), the ORR is reported as 74%. Besides, in data set [1] (ARROW, treatment-naïve RET-mutant MTC ref 31), the ORR is 71%.

Regarding `COc1ccc(CN2C3CC2CN(c2ccc(-c4cc(OCC(C)(C)O)cn5ncc(C#N)c45)cn2)C3)cn1` [selpercatinib], in the data set on patients (LIBRETTO-001 ref 28), the “Grade ≥ 3 TRAEs” value was 38.6%. Further, the “Grade ≥ 3 hypertension” value in the data set with patients (LIBRETTO-001 ref 28) is on record as 13.2%. The “Grade ≥ 3 increased ALT” value with patients (LIBRETTO-001 ref 28) was 9.0%. Besides, the “Grade ≥ 3 increased AST” value in the data set with patients (LIBRETTO-001 ref 28) is 6.3%. In addition, the TRSAEs in the data set on patients (LIBRETTO-001 ref 28) is recorded as 11%. In addition, the Treatment-induced deaths in the data set with patients is 0.1%. Also, the Treatment-induced discontinuations in the data set with patients is on record as 3%. In addition, the Treatment-induced dose reductions in the data set on patients is recorded as 41%. Moreover, the IC50 at hERG potassium channel is 1100 nM. Moreover, the ORR in data set [1] (LIBRETTO-001, 19 RET fusion-positive thyroid cancer ref 96-97) was 79%; in data set [1] (LIBRETTO-001, 39 NSCLC without systemic therapy ref 96-97) it was 84%; in data set [1] (LIBRETTO-001, 105 RET fusion-positive NSCLC ref 96-97), 64%; in data set [1] (LIBRETTO-001, NSCLC, previously treated ref 28) it was 61%; in data set [1] (LIBRETTO-001, RET-mutant thyroid cancer, 55 previously treated ref 96-97) it was 69%; in data set [1] (LIBRETTO-001, RET-mutant thyroid cancer, 88 not previously treated ref 96-97), 73%. Moreover, the ORR is given as 84% in data set [1] (LIBRETTO-431, NSCLC, treatment-naïve ref 30) and 69.4% in data set [1] (LIBRETTO-531, RET-mutant MTC ref 32). In addition, the “1-year DoR rate” value in data set [1] (previously treated ref 28) was 73.1%; in data set [1] (treatment-naïve ref 28) it was 66.1%. The “1-year PFS rate” value is listed as 70.5% in data set [1] (previously treated ref 28) and 70.6% in data set [1] (treatment-naïve ref 28). The same compound registered a TGI in data set [2] of 45.2%.

As for `CNC(=O)c1cc(Oc2ccc(NC(=O)Nc3ccc(Cl)c(C(F)(F)F)c3)cc2)ccn1` [sorafenib], the PR rate in data set [1] (DECISION ref 80) is given as 12.2%.

Take `COc1cc2c(Nc3ccc(Br)cc3F)ncnc2cc1OCC1CCN(C)CC1` [vandetanib]: the IC50 with RET is […].
